The numbers were not newly measured in EP0523845A2, “New benzodiazepine analogs” (MERCK & CO. INC., priority 1991, dated 1993), which cites them from elsewhere.

The conditions of this series: cited from Deschodt-Lanckman et al., Reg. Pept. 2, 15 (1981).

Each structure is given as a SMILES string.

As for `CSCC[C@H](NC(=O)[C@H](Cc1ccc(OS(=O)(=O)O)cc1)NC(=O)[C@@H](N)CC(=O)O)C(=O)NCC(=O)N[C@@H](Cc1c[nH]c2ccccc12)C(=O)N[C@@H](CCSC)C(=O)N[C@@H](CC(=O)O)C(=O)N[C@@H](Cc1ccccc1)C(N)=O` [CCK-8s, H-Asp-Tyr(S03H)-Met-Gly-Trp-Met-Asp-Phe-NH2], the half-life entry is “less than 1 hour”.
